# Results: US10765654B2, “Methods and compounds for treating cancer” (University of Vermont and State Agricultural College, priority 2011, dated 2020)
# Experiments:
# [1] = tested on: Oli-Neu cells, an oligodendrocyte progenitor cell (OPC) line; assay: Cell cycle profile by propidium iodide staining and flow cytometry; type: cell-based, murine; details: 0.25% GTA for 24 hours; Sato's medium; compared with GSCs
# Description: (§1) Cell cycle profiles were visualized by propidium iodide (PI) staining as previously described (Perez-Martinez & Jaworski (2005) J Neurosci 25:4917-29). OG35, OG33 and mouse neural stem cells were grown in stem cell medium (SCM; DMEM/F12, B27, 20 ng/ml ea bFGF & EGF) while the oligodendrocyte progenitor cell line, Oli-neu (Jung et al. (1995) Eur J Neurosci 7:1245-65) was grown in Sato's medium (DMEM supplemented with 100 μg/ml apotransferrin, 5 μg/ml insulin, 60 nM triiodothyronine, 30 nM sodium selenite, 100 μM putrescine, 1% horse serum, and 25 μg/ml G418). […] after 0.25% (v/v) GTA treatment, cells were trypsinized, recovered by centrifugation, re-suspended (10^6 cells/ml) in a low-salt PI solution ([…] polyethylene glycol PEG 8000, […], 180 U/ml RNase A, 0.1% Triton X-100, and 4 mM sodium citrate), and incubated at 37° C. for 20 minutes. After addition of an equal volume of high-salt PI solution ([…] polyethylene glycol PEG 8000, […], 180 U/ml RNase A, 0.1% Triton X-100, and 400 mM NaCl) and incubation at 4° C. for 1 hour, cell cycle profiles were recorded by flow cytometry (BD LSR 11 Flow Cytometer, BD Biosciences; Franklin Lakes, N.J.).
# [2] = tested on: murine neural stem cells (NSCs); assay: as above; type: cell-based; details: 0.25% GTA in SCM for 24 hours
# Description: as §1
# [3] = tested on: GBM8 GSCs; assay: Cell cycle profile of GBM-derived GSC spheres (flow cytometry); type: cell-based, human; details: 0.25% GTA in SCM for 24 hrs
# Description: as §1
# Flow cytometry was performed 24 hours after GTA treatment as described in prior examples herein.
# [4] = tested on: OG33 cells; assay: Immunocytochemistry after 5 days in differentiation medium with or without GTA; type: cell-based, human; details: 0.25% GTA, 5 days in DM
# Description: (§2) Immunocytochemistry was performed as described (Perez-Martinez & Jaworski (2005) J Neurosci 25:4917-29). Briefly, OG33 and OG35 cells were plated into differentiaion medium (DMEM, 10% FBS) in the absence or presence of 0.25% GAT and fixed with 2% paraformaldehyde after 5 days. Antibodies: rabbit anti-human ASPA (1500×; GTX13389; GeneTex, Irvine, Calif.), Rabbit anti-mouse ASPA (2,000× for western blot) (Madhavarao et al., 2004 Comp Neurol 472:318-29), rabbit anti-mouse AceCS1 (15,000× western blot; 1,500× immunocytochemistry) (Ariyannur et al. 2010 J Comp Neurol 518:2952-77), rabbit anti-mouse 2′,3′-cyclic nucleotide 3′-phosphodiesterase (CNPase; 500×sc-30158; Santa Cruz Biotechnology, Santa Cruz, Calif.). Cy3- (500×) conjugated secondary antibodies were obtained from Jackson ImmunoResearch (West Grove, Pa.). Immunocytochemistry for Histone 3/Tubulin/poly(ADP-ribose) polymerase (PARP) was performed using the PathScan Multiplex IF kit per manufacturer's instructions (Cell Signaling Technology, Danvers, Mass.).
# [5] = tested on: OG35 cells; assay: as above; type: cell-based, human; details: 0.25% GTA, 5 days in DM
# Description: as §2
# [6] = tested on: GBM12 astrocytoma GSCs; assay: Orthotopic graft in athymic mice, survival; type: in vivo; details: GBM 12 engrafted mice; GTA alone 5.8 g/kg daily; p<0.0001
# Description: Cells (2,500 cells in 4 μl) were injected into the right striatum (1 mm anterior, 1.5 mm lateral to bregma, 3.5 mm deep) of adult athymic mice (8-week-old, 25-28 g). […]
# For in vivo imaging, mice were injected i.p. with 150 mg/kg D-luciferin potassium salt 5 minutes prior to imaging under 1.5% inhaled isoflurane. Peak efflux was determined from an average of 15 bioluminescent acquisitions, with 1 min inter-acquisition intervals, using the auto-exposure setting. Total photon efflux was determined by drawing regions of interest over the emitted region and setting thresholds for each mouse to maximize the number of pixels encircled using Living Image acquisition and analysis software (Version 3.0.3.5, Caliper Life Sciences, Hopkinton, Mass.). […]
# Tumor bioluminescence (rate of flux change over time) and tumor volume were compared using a Mann-Whitney test. Survival was analyzed using Kaplan-Meier curves [Kaplan, EL and P Meier. (1958) J Am Stat Assoc 53:457-481] and comparisons between groups were analyzed with a log-rank test [Peto, R and J Peto. […]
structure (smiles),measurement,setting,value
"CC(=O)OCC(COC(C)=O)OC(C)=O [GTA, glyceryltriacetate]",Cell cycle arrest,[1],less effect
same,Cell cycle arrest,[2],no effect
same,Growth arrest,[3],did not induce growth arrest
same,"Apoptosis (cleaved PARP, Asp214)",[4],no cleaved PARP
same,Proliferation (phospho-histone H3 [Ser 10]),[4],decreased phospho-histone H3
same,"Apoptosis (cleaved PARP, Asp214)",[5]; OG35,no cleaved PARP
same,Nuclear expression of ASPA,[5]; OG35,increase the nuclear expression of ASPA
same,Proliferation (phospho-histone H3 [Ser 10]),[5]; OG35,decreased phospho-histone H3
same,"GSC differentiation (expression of CNPase, a marker of mature oligodendrocytes)",[5]; primarily in OG35 cells,increased expression of CNPase
same,Survival relative to vehicle treated mice,[6],increased survival relative to vehicle treated mice
